# Measured values reported in patent publication US9969758B2, “Antimicrobial compounds” (BIOMERIEUX, priority 2014, dated 2018).
# How the values were obtained:
# Experiment in all cases: MIC by agar dilution, single strains
# Assay type in all cases: cell-based
# [1] = test system: Klebsiella pneumoniae NCTC 9528; conditions: NCTC9528, 22 hours of incubation, read-out: Minimum inhibitory concentration (MIC)
# Method: (§1) Determining the minimum inhibitory concentrations (MIC). All the MICs were determined using an agar dilution method. This required use of a medium without a defined antagonist (peptone-free), prepared as described previously with the inclusion of 2% horse blood lysed with saponin, 25.0 μg/mL of NAD and 25.0 μg/mL of hemin [17]. The compounds tested were dissolved in sterile deionised water and incorporated into the agar medium in a concentration range of 0.0031 to 8.0 μg/mL (0.016 to 32 μg/mL for gram-positive bacteria). All the isolates were prepared at a density equivalent to 0.5 McFarland units in sterile deionised water using a densitometer (approximately 1.5×10^8 CFU/mL), and then diluted to 1 for 15. An aliquot of 1 μL of each diluted suspension was then placed onto plates with a multispot inoculator to give the final recommended inoculation of 10 000 CFU/spot. The MICs of fosfomycin were determined by the same method, except that the IsoSensitest medium (Oxoid, Basingstoke, United Kingdom) was used, plus 25.0 μg/mL of glucose-6-phosphate (Sigma, Poole, United Kingdom) and an extended range of fosfomycin concentrations. All the dishes (including the antimicrobial-free controls) were incubated for 22 hours at 37° C. All the tests were performed on at least two independent replicates in order to examine the reproducibility.
# [2] = test system: Pseudomonas aeruginosa NCTC 10662; conditions: NCTC10662, 22 hours of incubation, read-out: Minimum inhibitory concentration (MIC)
# Method: as §1
# [3] = test system: Salmonella enteritidis NCTC 6676; conditions: Salmonella enterica, 22 hours of incubation, read-out: Minimum inhibitory concentration (MIC)
# Method: as §1
# [4] = test system: Enterobacter cloacae NCTC 11936; conditions: NCTC11936, 22 hours of incubation, read-out: Minimum inhibitory concentration (MIC)
# Method: as §1
# [5] = test system: Staphylococcus aureus NCTC 6571; conditions: NCTC6571, 22 hours of incubation, read-out: Minimum inhibitory concentration (MIC)
# Method: as §1
# [6] = test system: Enterococcus faecalis NCTC 775; conditions: NCTC775, 22 hours of incubation, read-out: Minimum inhibitory concentration (MIC)
# Method: as §1
# [7] = test system: Salmonella typhimurium NCTC 74; conditions: Salmonella enterica, 22 hours of incubation, read-out: Minimum inhibitory concentration (MIC)
# Method: as §1
# [8] = test system: Staphylococci epidermidis NCTC 11047; conditions: 22 hours of incubation, read-out: Minimum inhibitory concentration (MIC)
# Method: as §1
# [9] = test system: Serratia marcescens NCTC 10211; conditions: NCTC10211, 22 hours of incubation, read-out: Minimum inhibitory concentration (MIC)
# Method: as §1
# [10] = test system: Burkholderia cepacia ATCC 25416; conditions: ATCC25416, 22 hours of incubation, read-out: Minimum inhibitory concentration (MIC)
# Method: as §1
# [11] = test system: Escherichia coli NCTC 10418; conditions: NCTC10418, 22 hours of incubation, read-out: Minimum inhibitory concentration (MIC)
# Method: as §1
# [12] = test system: Listeria monocytogenes NCTC 11994; conditions: NCTC11994, 22 hours of incubation, read-out: Minimum inhibitory concentration (MIC)
# Method: as §1
# [13] = test system: Staphylococcus aureus NCTC 11939 (SARM); conditions: NCTC11939, 22 hours of incubation, read-out: Minimum inhibitory concentration (MIC)
# Method: as §1
# [14] = test system: Acinetobacter baumannii ATCC 19606; conditions: ATCC19606, 22 hours of incubation, read-out: Minimum inhibitory concentration (MIC)
# Method: as §1
# [15] = test system: Providencia rettgeri NCTC 7475; conditions: NCTC7475, 22 hours of incubation, read-out: Minimum inhibitory concentration (MIC)
# Method: as §1
# [16] = test system: Escherichia coli NCTC 12241; conditions: NCTC12241, 22 hours of incubation, read-out: Minimum inhibitory concentration (MIC)
# Method: as §1
# [17] = test system: Yersinia enterocolitica NCTC 11176; conditions: NCTC11176, 22 hours of incubation, read-out: Minimum inhibitory concentration (MIC)
# Method: as §1
# [18] = test system: Enterococcus faecium NCTC 7171; conditions: NCTC7171, 22 hours of incubation, read-out: Minimum inhibitory concentration (MIC)
# Method: as §1
MIC [1] [µg/mL],MIC [2] [µg/mL],MIC [3] [µg/mL],MIC [4] [µg/mL],MIC [5] [µg/mL],MIC [6] [µg/mL],MIC [7] [µg/mL],MIC [8] [µg/mL],MIC [9] [µg/mL],MIC [10] [µg/mL],MIC [11] [µg/mL],MIC [12] [µg/mL],MIC [13] [µg/mL],MIC [14] [µg/mL],MIC [15] [µg/mL],MIC [16] [µg/mL],MIC [17] [µg/mL],MIC [18] [µg/mL],SMILES
0.5,> 8,> 8,4,4,0.063,> 8,2,0.5,> 8,1,> 8,> 8,> 8,> 8,0.5,0.25,1,"CCC[C@H](N)C(=O)N[C@@H](CCl)C(=O)NC(C)P(=O)(O)O (stereo partly drawn) [compound G, L-Norvalinyl-β-chloro-L-alanyl-D/L-fosfalin]"
0.5,> 8,> 8,4,2,0.032,> 8,1,0.25,> 8,0.5,> 8,> 8,> 8,> 8,0.5,0.25,1,"CSCC[C@H](N)C(=O)N[C@@H](CCl)C(=O)NC(C)P(=O)(O)O (stereo partly drawn) [compound H, L-methionyl-β-chloro-L-alanyl-D/L-fosfalin]"
